Laboratory results as given in patent US20220169989A1, “HUMAN CARDIOMYOCYTE SEPARATION REAGENT, CULTURE MEDIUM, SEPARATION METHOD, AND CULTURE METHOD” (FUWAI HOSPITAL CHINESE ACADEMY OF MEDICAL SCIENCES, priority 2019, published 2022).
≈ marks a conversion by molar mass, not a printed value.

Assays:
[1] = test system: human cardiomyocytes; assay: Culture test: concentrations of (−)-Blebbistatin and para-aminoblebbistatin (Example 2.1); assay type: cell-based
Description: 10% fetal bovine serum, 100 U/ml penicillin and 100 μg/ml streptomycin were added to M199 medium (purchased from Sigma), and the resulting medium was used as the basal medium. The experiment was divided into 9 groups, i.e. 0, 2.5, 5, 10, or 20 μM (−)-Blebbistatin, or 5 μM, 10 μM, 20 μM, or 50 μM para-aminoblebbistatin was added to the basal medium. The isolated human cardiomyocytes were divided into 9 groups, and the cells using 9 culture media were plated on a 48-well cell culture plate precoated with 200 μg laminin, and placed and cultured in a 37° C. cell incubator (with 5% CO2, and a relative saturated humidity of 95%) for 7 days, and the rates of rod-shaped cardiomyocytes were calculated.

[2] = test system: human cardiomyocytes; assay: Human cardiomyocyte isolation test (calcium-free solution); assay type: cell-based
Description: The cardiomyocyte isolation process generally comprises tissue transport and sectioning, calcium-free perfusion, enzyme solution digestion and cell collection. In the process, the calcium-free Tyrode's solution (calcium-free solution) was the main reagent used in the isolation process, for calcium-free perfusion, enzyme solution digestion and cell collection. The test was conducted in this invention by reference to the cardiomyocyte isolation experimental protocol described in Liang Chen, Guang-ran Guo, Man Rao, Kai Chen, Jiang-ping Song and Sheng-shou Hu, “A Modified Method for Isolation of Human Cardiomyocytes to Model Cardiac Diseases.”, Journal of Translational Medicine (2018). Specific steps were as follows:
An excised left atrial appendage was immediately placed in an organ preservation solution (manufactured by the University of Wisconsin, USA) (about 4° C.), and quickly transferred it to a 60 mm cell culture dish in a super clean bench, an organ preservation solution (about 4° C.) was added, and the culture dish was placed on an ice box pre-cooled in a refrigerator at −20° C. Scissors were used to remove excess fat and trim it, the tissue was adhered to a specimen stage, and a microtome (Leica VT1200S, Germany) was used to slice the tissue (300 μm) which was then manually cut into pieces in the super clean bench. The cut atrial appendage pieces were divided into three groups, and the tissues were decalcified three times using the calcium-free solution of the present invention. 15-20 ml calcium-free solution was added to an Erlenmeyer flask for calcium-free perfusion for three times. The Erlenmeyer flask was shaken at room temperature, the calcium-free solution was replaced with fresh one after 2 min and 3 min respectively, and the third calcium-free perfusion time is 4 min. After finishing the calcium-free perfusion, the calcium-free solution was discarded and enzyme solution 1 (preheated to 37° C.) formulated from the corresponding calcium-free solution was added respectively. […] The enzyme solution was collected into a 15 ml centrifuge tube, fresh enzyme solution 1 was added to the Erlenmeyer flask, and digestion was still performed in the water bath kettle. The collected enzyme solution was placed in a pre-cooled 4° C. centrifuge (Eppendorf centrifuge 5804R, Germany) for centrifugation (100×g, 1 min), and the supernatant was discarded, followed by observing whether there were cardiomyocytes in the precipitate at the tube bottom, and determining the proportion of rod-shaped cells. The second digestion is the same as the first digestion. When the rate of rod-shaped cardiomyocytes contained in the precipitate is 70% or more, the enzyme solution 1 was replaced with enzyme solution 2 formulated from the calcium-free solution used in the enzyme solution 1, and digestion was continued. This time, cardiomyocytes in the turbid enzyme solution were collected by centrifugation (4° C., 100×g, 1 min) and then resuspending cells in a 3 ml transport solution.
In the process, the calcium-free solution was a calcium-free solution comprising 5 μM (−)-Blebbistatin, 10 μM (−)-Blebbistatin, and 20 mM BDM, respectively.

[3] = test system: human cardiomyocytes; assay: In vitro culture of isolated human cardiomyocytes after recalcification; assay type: cell-based; conditions: 10 μM in isolation and in M199 + 10% FBS culture; cultured for 6 days; higher than 20 mM BDM group, p<0.05
Description: In addition, in order to observe whether the cell states were different when the human cardiomyocytes isolated using two calcium-free solutions (20 mM BDM and 10 μM (−)-Blebbistatin) were cultured in vitro, we performed recalcification on the isolated human cardiomyocytes. Specifically, it was difficult for human cardiomyocytes to survive in an environment without calcium ions, and the present invention adopted a 5-step gradient recalcification method to restore the calcium ion concentration of human cardiomyocytes. The concentration gradients of CaCl2 (with a stock concentration of 30 mM) added to the cell collection solution were 0.08 mM (5 min), 0.25 mM (5 min), 0.5 mM (5 min), 1 mM (5 min), and 1.8 mM (15 min) in order. The human cardiomyocytes isolated in the 20 mM BDM group were cultured using M199 medium with addition of 10% fetal bovine serum (FBS) (note: the concentration percentage of fetal bovine serum in the examples and corresponding figures was volume percentage), 100 U/ml penicillin, 100 μg/ml streptomycin and 20 mM BDM. […]

[4] = water solubility, known property; cited from earlier work
[5] = test system: human cardiomyocytes; assay: Effect of coating composition on adherent cardiomyocytes (Example 2.2); assay type: cell-based; conditions: 72 hours; for number of rod-shaped cells: medium with 20 mM BDM
Description: 48-well culture plates were coated with the following reagents: laminin (Gibco, product number: 23017015; 50 μg/ml or 200 μg/ml, incubated overnight in a 37° C. incubator, and air dried), fibronectin (Sigma Aldrich, product number: F0895-2 MG; 5 μg/ml or 50 μg/ml, air dried), poly-L-lysine (Sigma Aldrich, product number: P04832-50 ML; 0.01%, incubated at room temperature for 5 min, air dried), and Matrigel (Corning, product number: 354234; incubated at 37° C. for 30 min). The culture medium used in this experiment was obtained by adding 20 mM BDM, 10% fetal bovine serum, 100 U/ml penicillin and 100 μg/ml streptomycin to M199 medium. The isolated cardiomyocytes were plated on coated 48-well culture plates, cultured for 72 hours (h), and photographed under a microscope. 4 fields of view were taken for each group for calculating the average number of rod-shaped cells, and the result was expressed as the mean±standard deviation.

[6] = test system: human cardiomyocytes; assay: Effect of myosin inhibitors BTS and MYK-461 on survival rate (Example 2.5); assay type: cell-based; conditions: MEM-HEPES-GlutaMAX + 10% FBS, p<0.05
Description: In order to explore whether there are other myosin ATPase inhibitors besides BDM and (−)-Blebbistatin that can improve the rate of rod-shaped cardiomyocytes, the effects of (−)-Blebbistatin, BTS, and MYK-461 on the activity of cardiomyocytes were compared. For the isolated human cardiomyocytes, MEM-4-hydroxyethyl piperazine ethanesulfonic acid-GlutaMAX medium comprising 10 μM (−)-Blebbistatin, BTS (at concentrations of 5 μM, 10 μM, 20 μM, 30 μM, 40 μM, or 50 μM, respectively), or MYK-461 (at concentrations of 0.5 μM, 1 μM, 2 μM, 5 μM, 10 μM, or 20 μM, respectively) respectively was used, and 10% fetal bovine serum, 100 U/ml penicillin and 100 μg/ml streptomycin were added to the medium.

## Cc1ccc2c(c1)C(=O)[C@]1(O)CCN(c3ccc(N)cc3)C1=N2 [para-aminoblebbistatin]
[1]; 10 μM para-aminoblebbistatin vs 10 μM (−)-Blebbistatin, 7 days
  viability / survival rate of human cardiomyocytes: no statistical difference
[1]; 5-50 μM, 7 days
  survival rate of cardiomyocytes: can significantly improve the survival rate of cardiomyocytes

## CC(=O)C(C)=NO [BDM, 2,3-butanedione monoxime]
[2]; 20 mM
  rod-shaped cell morphology after isolation (photomicrographs): not well maintained
[2]; 20 mM in calcium-free solution, reference of the normalization
  normalized rod-shaped cell rate: 1.0

## Cc1ccc2c(c1)C(=O)[C@]1(O)CCN(c3ccccc3)C1=N2 [(−)-Blebbistatin]
[2]; 5 μM and 10 μM
  rod-shaped cell morphology after isolation (photomicrographs): can maintain the long rod-shaped morphology of human cardiomyocytes
[2]; 5 μM and 10 μM in calcium-free solution, 20 mM BDM group normalized to 1.0, p<0.05
  normalized rod-shaped cell rate: 1.2-1.5
[2]; 5 μM and 10 μM vs 20 mM BDM group, p<0.05
  lengths of human cardiomyocytes isolated: remarkably longer than those in the 20 mM BDM group
[3]
  rate of rod-shaped cardiomyocytes: ≥ 80%
[4]
  solubility: 10.9 ± 0.9 µM (≈ 3.19 µg/mL)
[1]; 5 μM and 10 μM vs 0 μM, after 1 day of culture
  state of cardiomyocytes (culture images): remarkably better than in the 0 μM group
[1]; 10 μM compared with 5 μM, 1 day, more obvious after 7 days
  long rod-shaped morphology of cardiomyocytes (culture images): better maintained the long rod-shaped morphology of cardiomyocytes
[1]; 2.5, 5, 10, 20 μM vs 0 μM, M199 + 10% FBS, 7 days, p<0.001
  rate of rod-shaped cells: remarkably higher than that in the group without (−)-Blebbistatin

## fibronectin
[5]; coating 5 μg/ml, 50 μg/ml
  number of rod-shaped cells: significantly lower than that in the Matrigel group, 50 μg/ml laminin group and 200 μg/ml laminin group

## CC(C)n1c(=O)cc(N[C@@H](C)c2ccccc2)[nH]c1=O [MYK-461]
[6]; 0.5-20 μM vs 10 μM (−)-Blebbistatin
  percentages of rod-shaped cells: significantly lower than the percentage in the (−)-Blebbistatin group

## Cc1ccc(S(=O)(=O)NCc2ccccc2)cc1 [BTS, N-benzyl-p-toluenesulfonamide]
[6]; 5-50 μM vs 10 μM (−)-Blebbistatin
  percentages of rod-shaped cells: significantly lower than the percentage in the (−)-Blebbistatin group

## laminin
[5]; coating 200 μg/ml
  number of rod-shaped cells: highest number of rod-shaped cells
[5]; coating, laminin 50-200 μg/ml
  adherence and growth of cardiomyocytes: can allow cardiomyocytes to adhere and grow
